Measured values published in PMC7044277 (Nature Communications, 2020).
Values joined by “and” are separate entries in the source; they are usually repeats but may differ in a detail not shown here. Equal values may be shown once.

Tests used:
Format in all cases: cell-based
320 non-olfactory GPCRs [1] = target: 320 non-olfactory GPCRs (Homo sapiens, UniProt P14416)
320 non-olfactory GPCRs [2] = target: T1, 320 non-olfactory GPCRs (Homo sapiens, UniProt P49146); conditions: receptor NPY2R; replicate values, Fig_4g
T1 construct: expressed in transfected cells; host or cells: HTLA cells

320 non-olfactory GPCRs [3] = target: T2, 320 non-olfactory GPCRs (Homo sapiens, UniProt Q9NS75)
T2 construct: expressed in transfected cells; host or cells: HTLA cells

320 non-olfactory GPCRs [4] = target: T3, 320 non-olfactory GPCRs (Homo sapiens, UniProt P47871)
T3 construct: expressed in transfected cells; host or cells: HTLA cells
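For Fold of Basal in this document: compound tested at 1 µM final concentration.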
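For GPCRome agonism screen response in this document: fold over basal response of each receptor without drug.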

T3 sequence (P47871 26-477): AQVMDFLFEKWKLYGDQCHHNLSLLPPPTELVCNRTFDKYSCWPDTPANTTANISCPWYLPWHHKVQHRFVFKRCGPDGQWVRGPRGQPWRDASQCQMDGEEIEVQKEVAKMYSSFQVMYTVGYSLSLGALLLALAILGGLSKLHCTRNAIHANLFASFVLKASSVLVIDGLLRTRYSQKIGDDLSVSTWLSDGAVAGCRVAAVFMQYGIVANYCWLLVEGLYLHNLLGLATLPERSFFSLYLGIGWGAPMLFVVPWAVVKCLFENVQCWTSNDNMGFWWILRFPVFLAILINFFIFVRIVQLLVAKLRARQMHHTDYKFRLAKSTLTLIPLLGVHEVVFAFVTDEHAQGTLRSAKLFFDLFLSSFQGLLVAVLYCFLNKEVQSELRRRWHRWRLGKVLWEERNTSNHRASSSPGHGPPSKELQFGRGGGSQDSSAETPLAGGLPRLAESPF
Chain of 320 non-olfactory GPCRs (Homo sapiens, UniProt P14416) (P14416 whole entry): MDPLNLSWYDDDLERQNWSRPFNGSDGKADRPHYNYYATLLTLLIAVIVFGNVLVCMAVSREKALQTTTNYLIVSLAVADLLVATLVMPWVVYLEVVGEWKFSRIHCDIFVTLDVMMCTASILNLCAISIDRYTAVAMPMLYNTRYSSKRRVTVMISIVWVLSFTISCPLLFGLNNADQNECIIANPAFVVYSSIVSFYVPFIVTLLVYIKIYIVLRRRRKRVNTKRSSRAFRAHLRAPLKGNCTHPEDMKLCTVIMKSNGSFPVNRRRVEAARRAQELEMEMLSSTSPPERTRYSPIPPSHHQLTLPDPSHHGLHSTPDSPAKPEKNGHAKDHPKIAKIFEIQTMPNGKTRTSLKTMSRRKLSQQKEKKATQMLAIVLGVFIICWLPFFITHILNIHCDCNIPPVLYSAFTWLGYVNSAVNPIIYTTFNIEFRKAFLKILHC
T2 sequence (Q9NS75 whole entry): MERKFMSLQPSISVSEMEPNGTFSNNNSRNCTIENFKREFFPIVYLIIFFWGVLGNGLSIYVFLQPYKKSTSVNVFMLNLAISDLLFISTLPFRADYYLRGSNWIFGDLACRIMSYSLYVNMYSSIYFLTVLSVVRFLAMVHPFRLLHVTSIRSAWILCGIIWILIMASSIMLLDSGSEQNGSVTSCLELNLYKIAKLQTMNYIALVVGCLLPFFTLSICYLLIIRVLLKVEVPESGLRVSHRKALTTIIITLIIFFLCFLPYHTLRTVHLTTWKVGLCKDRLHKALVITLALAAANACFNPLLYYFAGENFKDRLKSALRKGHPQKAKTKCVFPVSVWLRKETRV
T1 sequence (P49146 whole entry): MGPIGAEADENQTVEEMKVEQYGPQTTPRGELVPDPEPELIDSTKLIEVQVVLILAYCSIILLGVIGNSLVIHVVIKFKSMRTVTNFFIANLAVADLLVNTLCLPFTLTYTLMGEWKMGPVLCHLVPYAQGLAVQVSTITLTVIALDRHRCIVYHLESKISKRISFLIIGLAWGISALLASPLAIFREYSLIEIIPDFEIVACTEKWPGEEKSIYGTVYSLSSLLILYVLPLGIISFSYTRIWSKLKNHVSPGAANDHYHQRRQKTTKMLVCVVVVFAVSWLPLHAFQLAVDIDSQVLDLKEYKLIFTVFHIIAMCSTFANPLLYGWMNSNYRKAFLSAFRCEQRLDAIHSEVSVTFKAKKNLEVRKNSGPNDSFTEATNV

CCOc1cccc2cc(C(C)NCC3(O)CCCCC3)oc12 (stereo not shown) [O4LE6]
Fold of Basal (320 non-olfactory GPCRs [1]): 84.6178 and 80.3873 and 78.6628 and 75.3887
GPCRome agonism screen response (320 non-olfactory GPCRs [2]): 0.7835 and 0.8337 and 0.6188 and 0.7117
Fold of Basal (320 non-olfactory GPCRs [3]): 2.056 and 1.771 and 2.16 and 1.536
Fold of Basal (320 non-olfactory GPCRs [4]): 1.104 and 0.7209 and 1.128 and 1.0533
